System: not given
Test: not given
Settings: not given

SMILES	melting point
O=C(Nc1ccc([N+](=O)[O-])cc1O)Nc1ccccc1Sc1ccccc1[N+](=O)[O-]	204.1 to 205.3 °C
COC(=O)c1ccc(NC(=O)Nc2ccccc2)c(O)c1 [Example 1, N-[2-Hydroxy-4-(methoxycarbonyl)phenyl]-N′-phenyl urea]	188.4 to 188.8 °C
NC(=O)c1ccc(NC(=O)Nc2ccccc2)c(O)c1 [Example 3, 3-hydroxy-4-{[(phenylamino)carbonyl]amino}benzamide]	106.8 to 107.1 °C
O=C(Nc1ccccc1)Nc1ccc(F)cc1O [Example 4, N-(2-hydroxy-4-fluorophenyl)-N′-phenyl urea]	195.5 to 195.7 °C
O=C(Nc1ccccc1)Nc1ccccc1S [Example 5, 2-{[(phenylamino)carbonyl]amino}thiophenol]	194.5 °C
COc1ccsc1NC(=O)Nc1cc([N+](=O)[O-])ccc1O [Example 11, N-(2-hydroxy-5-nitrophenyl)-N′-(3-methoxy-2-thienyl)urea]	172.6 to 173 °C
O=C(Nc1cccc(C(F)(F)F)c1O)Nc1cccc(Cl)c1Cl [Example 203, N-(2-hydroxy-3-trifluoromethylphenyl)-N′-(2,3-dichlorophenyl)urea]	204.3 to 205.2 °C
O=C(Nc1ccccc1-c1ccccc1)Nc1cccc(C(F)(F)F)c1O [Example 204, N-(2-hydroxy-3-trifluoromethylphenyl)-N′-(2-phenylphenyl)urea]	136.7 to 137.3 °C
O=C(Nc1ccccc1Cl)Nc1cccc(C(F)(F)F)c1O [Example 213, N-(2-hydroxy-3-trifluoromethylphenyl)-N′-(2-chlorophenyl)urea]	179.3 °C
O=C(NCCO)Nc1ccc([N+](=O)[O-])cc1O [Example 214, N-(2-Hydroxyethyl)-N′-(2-hydroxy-4-nitrophenyl)urea]	168.2 to 168.8 °C
O=C(Nc1ccc([N+](=O)[O-])cc1O)Nc1ccccc1NS(=O)(=O)c1cccs1 [Example 216, N-[2-(2-thienylsulfonylamino)phenyl]-N′-(2-hydroxy-4-nitrophenyl)urea]	149 to 149.6 °C

The next lines start with the values.

melting point	SMILES
185.4 to 186.2 °C	O=C(Nc1ccc([N+](=O)[O-])cc1O)Nc1ccccc1OCc1cccnc1 [Example 221, N-[2-(3-Pyridylmethoxy)phenyl]-N′-(2-hydroxy-4-nitrophenyl)urea]
189.3 to 189.7 °C	O=C(Nc1ccc([N+](=O)[O-])cc1O)Nc1ccccc1OCc1ccncc1 [Example 222, N-[2-(4-Pyridylmethoxy)phenyl]-N′-(2-hydroxy-4-nitrophenyl)urea]
199.3 to 199.6 °C	COC(=O)Nc1ccccc1NC(=O)Nc1ccc([N+](=O)[O-])cc1O [Example 223, N-[2-(Methoxycarbonylamino)phenyl]-N′-(2-hydroxy-4nitrophenyl)urea]
108.8 to 109.4 °C	N#Cc1ccc(NC(=O)Nc2ccccc2NCc2ccccc2)c(O)c1 [Example 232, N-(2-Hydroxy-4-cyanophenyl)-N′-(2-benzylaminophenyl)urea]
193.5 to 194 °C	NC(=O)N(c1ccc([N+](=O)[O-])cc1O)c1ccccc1OCc1ccccn1 [Example 233, N′-[2-(2-Pyridylmethoxy)phenyl]-N′-(2-Hydroxy-4-nitrophenyl)urea]
188.7 to 189.3 °C	O=C(Nc1ccc([N+](=O)[O-])cc1O)Nc1ccccc1NC(=O)c1ccccc1 [Example 236, N-[2-(Benzoylamino)phenyl]-N′-(2-hydroxy-4-nitrophenyl)urea]

Biological target: T1, recombinant IL-8 Rb, or Type II, receptor (permissive receptor) (Homo sapiens, UniProt P25025)
T1 construct: expressed in transfected cells; host or cells: Chinese hamster ovary cells (membrane preparation)
T1 sequence (P25025 1-360): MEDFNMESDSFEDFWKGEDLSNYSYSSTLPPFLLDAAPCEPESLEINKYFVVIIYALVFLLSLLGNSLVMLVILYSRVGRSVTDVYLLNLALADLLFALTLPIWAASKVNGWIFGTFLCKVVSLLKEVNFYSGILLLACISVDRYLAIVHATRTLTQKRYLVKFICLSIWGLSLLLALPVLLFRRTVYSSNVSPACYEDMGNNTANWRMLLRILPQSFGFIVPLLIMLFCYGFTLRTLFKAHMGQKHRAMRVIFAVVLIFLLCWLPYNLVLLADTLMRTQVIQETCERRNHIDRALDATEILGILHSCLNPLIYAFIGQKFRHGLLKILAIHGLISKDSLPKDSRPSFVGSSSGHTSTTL
Test: Receptor binding assay, 125I IL-8, permissive (Type II) receptor
Settings: concentration at which active
Description: [^125I] IL-8 (human recombinant) was obtained from Amersham Corp., Arlington Heights, Ill., with specific activity 2000 Ci/mmol. Gro-a was obtained from NEN-New England Nuclear. All other chemicals were of analytical grade. High levels of recombinant human IL-8 type a and b receptors were individually expressed in Chinese hamster ovary cells as described previously (Holmes, et al., Science, 1991, 253, 1278). The Chinese hamster ovary membranes were homogenized according to a previously described protocol (Haour, et al., J Biol Chem., 249 pp 2195-2205 (1974)). Except that the homogenization buffer was changed to 10 mM Tris-HCL, 1 mM MgS04, 0.5 mM EDTA (ethylene-diaminetetra-acetic acid), 1 m MPMSF (a-toluenesulphonyl fluoride), 0.5 mg/L Leupeptin, pH 7.5. Membrane protein concentration was determined using Pierce Co. micro-assay kit using bovine serum albumin as a standard. All assays were performed in a 96-well micro plate format. Each reaction mixture contained ^125I IL-8 (0.25 nM) or ^125I Gro-a and 0.5 μg/mL of IL-8Ra or 1.0 μg/mL of IL-8Rb membranes in 20 mM Bis-Trispropane and 0.4 mM Tris HCI buffers, pH 8.0, containing 1.2 mM MgSO4, 0.1 mM EDTA, 25 mM NaCl and 0.03% CHAPS. […] The filter was then dried and counted on the Betaplate liquid scintillation counter. […]

found to be active at (IL-8 receptor inhibition)	SMILES
about 75 μg/mL	Cc1cc(Cl)ccc1NC(=O)Nc1ccccc1C(=O)O [1-(2-Carboxyphenyl)-3-(4-chloro-2-methylphenyl)urea]
